Laboratory results from US20230295213A1, “CD73 INHIBITORS AND PHARMACEUTICAL USES THEREOF” (RISEN (SUZHOU) PHARMA TECH CO., LTD., priority 2018, published 2023).

Target: CD73 (Homo sapiens (Human), UniProt P21589)
Experiment: CD73 enzyme inhibition assay (Malachite Green Phosphate Detection Kit)
Type: biochemical
Settings: CD73 protein 0.5 μg/mL (2x), Tris-HCl pH 7.3, OD 620 nm; read-out: Potency (IC50 class), inhibitory activity in CD73 enzyme assay
Protocol: To evaluate the inhibitory effect of selected compounds on CD73, Malachite Green Phosphate Detection Kit (R&D, Cat #DY996) was used. Briefly, compounds were dissolved and diluted to the desired concentration using phosphate-free buffer (Tris-HCl, pH 7.3). 25 μL of the compound solution was added to an equal volume of CD73 protein solution (2× concentration, 0.5 μg/mL, Novoprotein, Cat #C446), followed by a 5-minute incubation at room temperature. 10 μL of Malachite Green Reagent A was added to each well, mixed thoroughly and incubated for 10 minutes at room temperature. 10 μL of Malachite Green Reagent B was then added to each well, mixed thoroughly and incubated for 20 minutes at room temperature. Finally, the optical density of each well was determined using a microplate reader set to 620 nm.

Chain of CD73 (P21589 27-574): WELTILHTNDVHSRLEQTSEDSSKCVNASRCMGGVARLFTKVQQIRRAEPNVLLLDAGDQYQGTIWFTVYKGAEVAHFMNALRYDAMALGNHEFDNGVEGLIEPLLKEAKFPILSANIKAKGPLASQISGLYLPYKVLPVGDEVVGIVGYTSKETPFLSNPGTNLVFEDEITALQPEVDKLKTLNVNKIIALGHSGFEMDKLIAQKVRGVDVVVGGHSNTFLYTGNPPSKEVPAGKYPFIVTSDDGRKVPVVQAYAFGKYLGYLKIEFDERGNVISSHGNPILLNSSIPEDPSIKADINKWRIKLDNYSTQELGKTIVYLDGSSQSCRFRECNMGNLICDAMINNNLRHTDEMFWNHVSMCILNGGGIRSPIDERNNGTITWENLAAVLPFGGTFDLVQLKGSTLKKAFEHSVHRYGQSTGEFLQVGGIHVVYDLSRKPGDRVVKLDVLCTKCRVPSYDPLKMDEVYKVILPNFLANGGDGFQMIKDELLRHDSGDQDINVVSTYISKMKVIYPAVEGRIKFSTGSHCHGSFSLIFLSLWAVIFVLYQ

IC50 [nM] | Compound
< 10 | O=P(O)(O)CP(=O)(O)OC[C@H]1O[C@@H](n2cnc3c(NCc4ccccc4)nc(Cl)nc32)[C@@H](O)C1O (stereo partly shown) [Compound 1]
10 to 100 | CC1(C)OC2C(O1)[C@@H](COP(=O)(O)CP(=O)(O)O)O[C@H]2n1cnc2c(NCc3ccccc3)nc(Cl)nc21 (stereo partly shown) [Compound 2]
< 10 | O=P(O)(O)CP(=O)(O)OC[C@H]1O[C@@H](n2cnc3c(NCc4cccc5ccccc45)nc(Cl)nc32)[C@@H](O)C1O (stereo partly shown) [Compound 6]
< 10 | O=P(O)(O)CP(=O)(O)OC[C@H]1O[C@@H](n2cnc3c(NCc4ccc5ccccc5c4)nc(Cl)nc32)[C@@H](O)C1O (stereo partly shown) [Compound 7]
10 to 100 | CCCCCOC(=O)Nc1nc(Cl)nc2c1ncn2[C@@H]1O[C@H](COP(=O)(O)CP(=O)(O)O)C(O)C1O (stereo partly shown) [Compound 8]
< 10 | C[C@]12C[C@@H]3C[C@](C)(C1)C[C@@](Nc1nc(Cl)nc4c1ncn4[C@@H]1O[C@H](COP(=O)(O)CP(=O)(O)O)C(O)[C@@H]1O)(C3)C2 (stereo partly shown) [Compound 9]
10 to 100 | O=P(O)(O)CP(=O)(O)OC[C@H]1O[C@@H](n2cnc3c(-n4c5ccccc5c5ccccc54)nc(Cl)nc32)C(O)C1O (stereo partly shown) [Compound 10]
10 to 100 | O=P(O)(O)CP(=O)(O)OC[C@H]1O[C@@H](n2cnc3c(Nc4ccc5ccccc5c4)nc(Cl)nc32)C(O)C1O (stereo partly shown) [Compound 12]
< 10 | CCCCCCCCCCCCOC(=O)Nc1nc(Cl)nc2c1ncn2[C@@H]1O[C@H](COP(=O)(O)CP(=O)(O)O)C(O)[C@@H]1O (stereo partly shown) [Compound 15]
10 to 100 | O=C(CC12CC3CC(CC(C3)C1)C2)Nc1nc(Cl)nc2c1ncn2[C@@H]1O[C@H](COP(=O)(O)CP(=O)(O)O)C(O)[C@@H]1O (stereo partly shown) [Compound 16]
> 100 | CCCCCCCCCCCCN(CCCCCCCCCCCC)c1nc(Cl)nc2c1ncn2[C@@H]1O[C@H](COP(=O)(O)CP(=O)(O)O)C(O)[C@@H]1O (stereo partly shown) [Compound 19]
10 to 100 | O=P(O)(O)CP(=O)(O)OC[C@H]1O[C@@H](n2cnc3c(Nc4ccc5cc6ccccc6cc5c4)nc(Cl)nc32)C(O)C1O (stereo partly shown) [Compound 20]
< 10 | O=P(O)(O)CP(=O)(O)OC[C@H]1O[C@@H](n2cnc3c(NC45CC6CC(CC(C6)C4)C5)nc(Cl)nc32)[C@@H](O)C1O (stereo partly shown) [Compound 22]
< 10 | O=P(O)(O)CP(=O)(O)OC[C@H]1O[C@@H](n2cnc3c(N4CCC5(CCCCC5)C4)nc(Cl)nc32)[C@@H](O)C1O (stereo partly shown) [Compound 31]

Continued, compound first:

Compound | IC50 [nM]
CCCCC/C=C\C/C=C\CCCCCCCC(=O)Nc1nc(Cl)nc2c1ncn2[C@@H]1O[C@H](COP(=O)(O)CP(=O)(O)O)C(O)C1O (stereo partly shown) [Compound 11] | 10 to 100
O=P(O)(O)CP(=O)(O)OC[C@H]1O[C@@H](n2cnc3c(NC4C5CC6CC(C5)CC4C6)nc(Cl)nc32)[C@@H](O)C1O (stereo partly shown) [Compound 17] | < 10
CCCCCCCCCCCCNC(=O)Nc1nc(Cl)nc2c1ncn2[C@@H]1O[C@H](COP(=O)(O)CP(=O)(O)O)C(O)C1O (stereo partly shown) [Compound 18] | 10 to 100
CC1(C)[C@@H]2CC[C@@]1(C)C(OC(=O)Cc1nc(Cl)nc3c1ncn3[C@@H]1O[C@H](COP(=O)(O)CP(=O)(O)O)C(O)C1O)C2 (stereo partly shown) [Compound 23] | 10 to 100
O=P(O)(O)CP(=O)(O)OC[C@H]1O[C@@H](n2cnc3c(N4C5CCC4CC(O)C5)nc(Cl)nc32)[C@@H](O)C1O (stereo partly shown) [Compound 51] | < 10

Same assay, conditions: qualitative statement

Compound | inhibitory activity in the CD73 enzyme assay
O=P(O)(O)CP(=O)(O)CC[C@H]1O[C@@H](n2cnc3c(NCc4ccccc4)nc(Cl)nc32)[C@@H](O)C1O (stereo partly shown) [a-1] | showed inhibitory activity
C[C@]12C[C@@H]3C[C@](C)(C1)C[C@@](Nc1nc(Cl)nc4c1ncn4[C@@H]1O[C@H](CCP(=O)(O)CP(=O)(O)O)C(O)[C@@H]1O)(C3)C2 (stereo partly shown) [a-9] | showed inhibitory activity
O=P(O)(O)CP(=O)(O)CC[C@H]1O[C@@H](n2cnc3c(N4CCC5(CCCCC5)C4)nc(Cl)nc32)[C@@H](O)C1O (stereo partly shown) [a-31] | showed inhibitory activity

Target: Recombinant human 5′-nucleotidase (hCD73) (Homo sapiens (Human), UniProt P21589)
Sequence (P21589 27-574): as above
Experiment: CD73 enzyme inhibition assay (hCD73, AMP substrate, PiColorLock Gold phosphate detection)
Type: biochemical
Settings: hCD73 1 nM solution, AMP 60 μM solution, 37° C. 20 min, absorbance 635 nm
Protocol: Test compound solution preparation: Stock solution of a test compound was prepared in DMSO at 10 mM concentration. A series of preset 10-concentration solutions of a test compound were prepared by diluting the stock solution in 5-fold gradient dilution with DMSO.
Assay buffer (lx): 20 mm Tris, 25 mM NaCl, 1 mM MgCl2, pH 7.5, 0.005% Tween-20 (freshly prepared, and ready for use).
An aliquot of 0.25 μL of compound solution or DMSO (blank control) was added to each test well of a micro well plate. Recombinant human 5′-nucleotidase (hCD73) was diluted to 1 nM in assay buffer; and an aliquot of 25 μL hCD73 (1 nM) solution was added to the corresponding wells of the plate. The contents of the well were well-mixed, and the plate was covered with sealing film, centrifuged at 1000 rpm for 30 sec., followed by incubation at room temperature for 15 min. AMP, the substrate, was diluted to 60 μM concentration in the assay buffer. To each reaction well was added 25 μL of AMP solution. After mixing well, the plate was covered with sealing film, centrifuged at 1000 rpm for 30 sec., and incubated at 37° C. for 20 min. The absorbance signal (end point) was measured on SPARK plate reader at 635 nm (See PiColorLock™ Gold Phosphate Detection System (Abcam) test kit for reference).
The reaction wells containing CD73 enzyme, substrate AMP and DMSO (no compound) were used as positive control, and the reaction wells containing substrate AMP and DMSO but no CD73 enzyme were used as negative control. The percent (%) inhibition at each concentration of compound was calculated based on and relative to the signal in the High and Low control wells contained within each assay plate. The High control wells were considered as 0% inhibition, and the low control wells, which didn't contain any compound but rather DMSO (final concentration=0.5%), as 100% inhibition. IC50 values were obtained using GraphPad Prism software.

IC50 [nM] | Compound
1.8 | O=P(O)(O)CP(=O)(O)OC[C@H]1O[C@@H](n2cnc3c(N4CC5(CCCCC5)c5ccccc54)nc(Cl)nc32)[C@@H](O)C1O (stereo partly drawn) [d-7]
0.75 | O=P(O)(O)CP(=O)(O)OC[C@H]1O[C@@H](n2cnc3c(N4CCC5(CCc6ccccc65)C4)nc(Cl)nc32)[C@@H](O)C1O (stereo partly drawn) [d-8]
1.5 | O=P(O)(O)CP(=O)(O)OC[C@H]1O[C@@H](n2cnc3c(N4CC5(CCCC5)c5ccccc54)nc(Cl)nc32)[C@@H](O)C1O (stereo partly drawn) [d-13]
1.29 | O=P(O)(O)CP(=O)(O)OC[C@H]1O[C@@H](n2cnc3c(N4CC5(CCC5)c5ccccc54)nc(Cl)nc32)[C@@H](O)C1O (stereo partly drawn) [d-20]
1.86 | O=P(O)(O)CP(=O)(O)OC[C@H]1O[C@@H](n2cnc3c(N4CC(c5ccccc5)C(c5ccccc5)C4)nc(Cl)nc32)[C@@H](O)C1O (stereo partly drawn) [d-36]

Second part, the compound before the results:

Compound | IC50 [nM]
O=P(O)(O)CP(=O)(O)OC[C@H]1O[C@@H](n2cnc3c(N4CCC5(CCCCC5)C4)nc(Cl)nc32)[C@@H](O)C1O (stereo partly shown) [Compound b, reference compound] | 1.08
O=P(O)(O)CP(=O)(O)OC[C@H]1O[C@@H](n2cnc3c(N4CC(c5ccccc5)c5ccccc54)nc(Cl)nc32)[C@@H](O)C1O (stereo partly drawn) [Compound d-38] | 1.92
O=P(O)(O)CP(=O)(O)OC[C@H]1O[C@@H](n2cnc3c(N4CC5(CCc6ccccc65)C4)nc(Cl)nc32)[C@@H](O)C1O (stereo partly drawn) [d-1] | 0.47
O=P(O)(O)CP(=O)(O)OC[C@H]1O[C@@H](n2cnc3c(N4CC5(Cc6ccccc6C5)C4)nc(Cl)nc32)[C@@H](O)C1O (stereo partly drawn) [d-9] | 0.73
O=P(O)(O)CP(=O)(O)OC[C@H]1O[C@@H](n2cnc3c(N4CC5(CCCc6ccccc65)C4)nc(Cl)nc32)[C@@H](O)C1O (stereo partly drawn) [d-12] | 0.4
O=P(O)(O)CP(=O)(O)OC[C@H]1O[C@@H](n2cnc3c(N4CC(c5ccccc5)(c5ccccc5)C4)nc(Cl)nc32)[C@@H](O)C1O (stereo partly drawn) [d-35] | 1.39

Test system: not listed separately
Experiment: Pharmacokinetic evaluation in ICR mice, intravenous
Type: in vivo
Settings: mouse; ICR male mice, 1.0 mg/kg intravenous, plasma
Protocol: A test compound (1.0 mg/kg) was administered to fasted ICR male mice via intravenous injection, and blood samples were collected at time points of 0.08, 0.25, 0.5, 1, 2, 4, 6, 8 and 24 h after the administration. Plasma sample was separated by centrifugation (8000 rpm) and stored at −80° C. until the sample was analyzed. Concentrations of the test compound in the plasma were determined by HPLC-MS/MS: the plasma was dispensed into appropriate tubes containing internal standard and methanol or acetonitrile. The tubes were mixed vigorously for 3 minutes to achieve deproteinization and then centrifuged at 8000 rpm for 5 minutes. The supernatant was transferred to an autosampler vial, injected into the chromatographic system, and quantified on MS/MS detector. Pharmacokinetic parameters including AUC0-t, Cmax, Tmax, t1/2, MRT, Cl and Vd were calculated using WinNonlin 6.3 software. Table 3 summarizes key PK parameters for test compounds (AUC(0-t): the area under the curve from time 0 to time t; AUC(0-∞): the area under the curve from time 0 to infinity; t1/2: Half-life; CL: clearance; C0: the concentration of drug in blood if the drug molecules enter the circulation and are distributed immediately (i.e., at time 0)).

AUC(0-inf) [ng·h/mL] | AUC(0-t) [ng·h/mL] | Cmax [ng/mL] | half-life [h] | Compound
6680 | 6670 | 7840 | 0.841 | O=P(O)(O)CP(=O)(O)OC[C@H]1O[C@@H](n2cnc3c(N4CCC5(CCCc6ccccc65)C4)nc(Cl)nc32)[C@@H](O)C1O (stereo partly drawn) [d-6]
197000 | 107000 | 12500 | 21.3 | O=P(O)(O)CP(=O)(O)OC[C@H]1O[C@@H](n2cnc3c(N4CC5(CCCCC5)c5ccccc54)nc(Cl)nc32)[C@@H](O)C1O (stereo partly drawn) [d-7]
298000 | 108000 | 11600 | 39.5 | O=P(O)(O)CP(=O)(O)OC[C@H]1O[C@@H](n2cnc3c(N4CC5(CCCC5)c5ccccc54)nc(Cl)nc32)[C@@H](O)C1O (stereo partly drawn) [d-13]
121000 | 94000 | 15600 | 12.2 | O=P(O)(O)CP(=O)(O)OC[C@H]1O[C@@H](n2cnc3c(N4CC5(CCC5)c5ccccc54)nc(Cl)nc32)[C@@H](O)C1O (stereo partly drawn) [d-20]

Continued, compound first:

Compound | AUC(0-inf) [ng·h/mL] | AUC(0-t) [ng·h/mL] | Cmax [ng/mL] | half-life [h]
C[C@H](Nc1cc(Cl)nc2c1cnn2[C@@H]1O[C@H](COP(=O)(O)CP(=O)(O)O)[C@@H](O)[C@H]1O)c1ccccc1F [Compound a, AB680, reference compound] | 24200 | 24000 | 11700 | 3.41
O=P(O)(O)CP(=O)(O)OC[C@H]1O[C@@H](n2cnc3c(N4CCC5(CCCCC5)C4)nc(Cl)nc32)[C@@H](O)C1O (stereo partly shown) [Compound b, reference compound] | 9120 | 9110 | 15200 | 0.85
O=P(O)(O)CP(=O)(O)OC[C@H]1O[C@@H](n2cnc3c(N4CC5(CCc6ccccc65)C4)nc(Cl)nc32)[C@@H](O)C1O (stereo partly drawn) [d-1] | 6360 | 6360 | 8850 | 0.556
O=P(O)(O)CP(=O)(O)OC[C@H]1O[C@@H](n2cnc3c(N4CC5(Cc6ccccc6C5)C4)nc(Cl)nc32)[C@@H](O)C1O (stereo partly drawn) [d-9] | 22500 | 19700 | 10700 | 2.95
O=P(O)(O)CP(=O)(O)OC[C@H]1O[C@@H](n2cnc3c(N4CC5(CCCc6ccccc65)C4)nc(Cl)nc32)[C@@H](O)C1O (stereo partly drawn) [d-12] | 9900 | 9860 | 8560 | 0.949
O=P(O)(O)CP(=O)(O)OC[C@H]1O[C@@H](n2cnc3c(N4CC5(CCCCCC5)c5ccccc54)nc(Cl)nc32)[C@@H](O)C1O (stereo partly drawn) [d-22] | 167000 | 74100 | 8030 | 28.9
